Results: patent publication US4680386A, “6-O-methylerythromycin a derivative” (Taisho Pharmaceutical Co., Ltd., priority 1984, dated 1987)
≈ marks a conversion by molar mass, not a printed value. Like-named read-outs stand apart in the source and are kept apart here.

Assays:
[1] = tested on: Escherichia coli NIHJ JC-2; assay: In vitro antibacterial activity (MIC method specified by the Japan Chemotherapeutic Society); type: cell-based; conditions: NIHJJC2, sensitive media (Eiken), read-out: MIC value (minimum inhibitory concentration)
Procedure: (§1) The antibacterial activity of the compound I against various bacteria was measured using sensitive media (produced by Eiken Co.) according to the MIC method specified by the Japan Chemotherapeutic Society. Erythromycin A was used as a control.

[2] = tested on: Bacillus subtilis ATCC 6633; assay: as above; type: cell-based
Procedure: as §1

[3] = tested on: Streptococcus faecalis 8043; assay: as above; type: cell-based
Procedure: as §1

[4] = tested on: Staphylococcus aureus FDA 209P; assay: as above; type: cell-based; conditions: FDA209P, read-out: MIC value (minimum inhibitory concentration)
Procedure: as §1

[5] = tested on: Staphylococcus aureus Smith No. 4; assay: as above; type: cell-based; conditions: read-out: MIC value (minimum inhibitory concentration)
Procedure: as §1

[6] = tested on: Baccilus cereus ATCC 9634; assay: as above; type: cell-based; conditions: sensitive media (Eiken), read-out: MIC value (minimum inhibitory concentration)
Procedure: as §1

[7] = tested on: Streptococcus epidermidis sp-al-l; assay: as above; type: cell-based; conditions: read-out: MIC value (minimum inhibitory concentration)
Procedure: as §1

[8] = tested on: bacteria; assay: Antibacterial activity (general statement); conditions: general statement in words
[9] = tested on: Staphylococcus aureus Smith No. 4; assay: In vivo antibacterial activity, oral treatment of intraperitoneally infected mice; parameters: species or system ICR mice; conditions: one hour after infection, 7-day survival, Litchfield-Wilcoxon, 95% confidence limits given
[10] = tested on: Staphylococcus aureus Smith No. 4; assay: as above; parameters: species or system ICR mice; conditions: for number of mice surviving for 7 days after the infection: one hour after infection, 10 mice per group
Procedure: 10 male ICR mice (Charles River) being of the average body weight 23 g were used for each group. Staphylococcus aureus Smith No. 4 was grown on heart infusion agar medium at 37° C. for 18 hours. The bacteria were suspended in BSG (containing 8.5 g of NaCl, 300 mg of KH2 PO4, 600 mg of Na2 HPO4, 100 mg of gelatin and 1000 ml of water) to show 6×10^7 cfu/ml (containing 5% of mucin). The bacterial suspension (0.5 ml) was injected intraperitoneally to each groups of mice for infection. Erythromycin A and erythromycin A 9-oxime were used as control. An hour after infection, each compound was administered orally to different groups of animals in the specified amounts to study its therapeutic effect.
The therapeutic effect of the drugs was judged by the […] value calculated from the number of mice surviving for 7 days after the infection according to the method of Litchfield-Wilcoxon.

With `CC[C@H]1OC(=O)[C@H](C)[C@@H](O[C@H]2C[C@@](C)(OC)[C@@H](O)[C@H](C)O2)[C@H](C)[C@@H](O[C@@H]2O[C@H](C)C[C@H](N(C)C)[C@H]2O)[C@](C)(OC)C[C@@H](C)C(=NO)[C@H](C)[C@@H](O)[C@]1(C)O` [Compound I, 6-O-methylerythromycin A 9-oxime] the MIC [1] was 50 mg/L (≈ 65.5 µM), the MIC ([2]; ATCC6633, Bacillus subtilis ATCC 6633, sensitive media (Eiken), read-out: MIC value (minimum inhibitory concentration)) was 0.1 mg/L (≈ 0.131 µM) and the MIC ([3]; Enterococcus faecalis, Streptococcus faecalis 8043, sensitive media (Eiken), read-out: MIC value (minimum inhibitory concentration)) was no more than 0.05 mg/L. For the same molecule, the MIC ([4]; Staphylococcus aureus FDA 209P, sensitive media (Eiken)) was 0.1 mg/L (≈ 0.131 µM), the MIC ([5]; Staphylococcus aureus Smith No. 4, sensitive media (Eiken)) was 0.1 mg/L (≈ 0.131 µM) and the MIC [6] was 0.1 mg/L (≈ 0.131 µM). The MIC ([7]; Streptococcus epidermidis sp-al-l, sensitive media (Eiken)) was 0.2 mg/L (≈ 0.262 µM), the antibacterial activity [8] was “strong antibacterial activity” and the ED50 [9] was 0.516 mg/mouse. The “number of mice surviving for 7 days after the infection” value (from here on “number of mice surviving for 7 days”) ([10]; 0.2 mg/mouse) was 1/10, the “number of mice surviving for 7 days” value ([10]; 0.4 mg/mouse) was 4/10 and the “number of mice surviving for 7 days” value ([10]; 0.8 mg/mouse) was 7/10. The “antibacterial activity by oral administration” value ([10]; compared with erythromycin A or erythromycin A 9-oxime) was “far superior to erythromycin A or erythromycin A 9-oxime”.
`CC[C@H]1OC(=O)[C@H](C)[C@@H](O[C@H]2C[C@@](C)(OC)[C@@H](O)[C@H](C)O2)[C@H](C)[C@@H](O[C@@H]2O[C@H](C)C[C@H](N(C)C)[C@H]2O)[C@](C)(O)C[C@@H](C)C(=NO)[C@H](C)[C@@H](O)[C@]1(C)O` [Erythromycin A 9-oxime, erythromycin A 9-oxime] was tested, and the ED50 [9] was 1.418 mg/mouse, the “number of mice surviving for 7 days” value ([10]; 0.5 mg/mouse) was 0/10 and the “number of mice surviving for 7 days” value ([10]; 1 mg/mouse) was 3/10. For the same molecule, the “number of mice surviving for 7 days” value ([10]; 2 mg/mouse) was 7/10.
`CC[C@H]1OC(=O)[C@H](C)[C@@H](O[C@H]2C[C@@](C)(OC)[C@@H](O)[C@H](C)O2)[C@H](C)[C@@H](O[C@@H]2O[C@H](C)C[C@H](N(C)C)[C@H]2O)[C@](C)(O)C[C@@H](C)C(=O)[C@H](C)[C@@H](O)[C@]1(C)O` [Erythromycin A, erythromycin A] showed an MIC [1] of 50 mg/L (≈ 68.1 µM), an MIC ([2]; Bacillus subtilis, ATCC6633, read-out: MIC value (minimum inhibitory concentration)) of 0.1 mg/L (≈ 0.136 µM) and an MIC ([3]; Enterococcus faecalis, 8043, read-out: MIC value (minimum inhibitory concentration)) of no more than 0.05 mg/L. The MIC ([4]; Staphylococcus aureus) was 0.2 mg/L (≈ 0.273 µM), the MIC ([5]; Staphylococcus aureus) was 0.1 mg/L (≈ 0.136 µM) and the MIC [6] was 0.2 mg/L (≈ 0.273 µM). The MIC ([7]; Streptococcus) was 0.2 mg/L (≈ 0.273 µM), the ED50 [9] was 1.517 mg/mouse and the “number of mice surviving for 7 days” value ([10]; 1 mg/mouse) was 1/10. For the same molecule, the “number of mice surviving for 7 days” value ([10]; 2 mg/mouse) was 8/10 and the “number of mice surviving for 7 days” value ([10]; 4 mg/mouse) was 10/10.
